For assay [1], the target named is T1, farnesyl protein transferase (FPT) (Rattus norvegicus, UniProt Q02293+Q04631).
T1 construct: partially purified rat brain farnesyl protein transferase (FPT); from tissue; host or cells: rat brain
As to the kind of experiment: In vitro enzyme assay: inhibition of farnesyl protein transferase (transfer of [3H]farnesyl to Ras-CVLS). The format is biochemical. The text has this: (§1) Both farnesyl protein transferase (FPT) and geranylgeranyl protein transferase (GGPT) I were partially purified from rat brain by ammonium sulfate fractionation followed by Q-Sepharose (Pharmacia, Inc.) anion exchange chromatography essentially as described by Yokoyama et al (Yokoyama, K., et al., (1991), A protein geranylgeranyltransferase from bovine brain: Implications for protein prenylation specificity, Proc. Natl. Acad. Sci USA 88: 5302-5306, the disclosure of which is incorporated herein by reference thereto). Two forms of val^12-Ha-Ras protein were prepared as substrates for these enzymes, differing in their carboxy terminal sequence. One form terminated in cysteine-valine-leucine-serine (Ras-CVLS) the other in cystein-valine-leucine-leucine (Ras-CVLL). […]
Several methods for measuring farnesyl protein transferase activity have been described (Reiss et al 1990, Cell 62: 81; Schaber et al 1990, J. Biol. Chem. 265: 14701; Manne et al 1990, PNAS 87: 7541; and Barbacid & Manne 1993, U.S. Patent No. 5,185,248). […] Filter mats were washed once with 6% TCA, 2% SDS and radioactivity was measured in a Wallac 1204 Betaplate BS liquid scintillation counter. Percent inhibition was calculated relative to the DMSO vehicle control.

In assay [2] the target is T2, geranylgeranyl protein transferase (GGPT) I (Rattus norvegicus, UniProt P53610+Q04631).
T2 construct: geranylgeranyl protein transferase (GGPT) I were partially purified from rat brain; from tissue; host or cells: rat brain
Put plainly: In vitro enzyme assay: inhibition of geranylgeranyl protein transferase I (Ras-CVLL as acceptor). The settings on record: Ras-CVLL as isoprenoid acceptor, read-out: inhibits GGPT. The class given is biochemical.
From the text: as §1, with “(Ras-CVLL). Ras-CVLS is a substrate for the famesyl protein transferase while Ras-CVLL is a substrate for geranylgeranyl protein transferase I. The cDNAs encoding these proteins were constructed so that the proteins contain an amino-terminal extension of 6 histidine residues. Both proteins were expressed in Escherichia coli and purified using metal chelate affinity chromatography. The radiolabelled isoprenyl pyrophosphate substrates, [3H]farnesyl pyrophosphate and [^3H]geranylgeranyl pyrophosphate, were purchased from DuPont/New England Nuclear.” for “(Ras-CVLL).”

For assay [3], the system named is T24-BAG4 human bladder carcinoma cells expressing an activated H-ras gene. Put plainly: Cell Mat assay: inhibition of tumor cell growth. The format is cell-based. The method, then:
(§2) Normal human HEPM fibroblasts were planted in 3.5 cm dishes at a density of 5 x 10^4 cells/dish in 2 ml growth medium, and incubated for 3-5d to achieve confluence. Medium was aspirated from each dish and the indicator tumor cells, T24-BAG4 human bladder carcinoma cells expressing an activated H-ras gene, were planted on top of the fibroblast monolayer at a density of 2 x 10^3cells/dish in 2 ml growth medium, and allowed to attach overnight. Compound-induced colony inhibition was assayed by addition of serial dilutions of compound directly to the growth medium 24 h after tumor cell planting, and incubating cells for an additional 14 d to allow colony formation. Assays were terminated by rinsing monolayers twice with phosphate-buffered saline (PBS), fixing the monolayers with a 1% glutaraldehyde solution in PBS, then visualizing tumor cells by staining with X-Gal (Price, J., et al., Lineage analysis in the vertebrate nervous system by retrovirus-mediated gene transfer, Proc. Natl. Acad. Sci.84, 156-160(1987)). […] The therapeutic index of the compound was quantitatively expressed as the ratio of mIC50/tIC50, with values greater than one indicative of tumor target specificity.

Assay [4] has as its system Normal human HEPM fibroblasts. Put plainly: Cell Mat assay: inhibition of normal cell growth (cell mat). The note with it: Fibroblast, normal cell monolayer. The class given is cell-based. The method, then: as §2
A further assay concerns Ras-CVLS processing. Put plainly: Cell-based assay: Ras processing in Ras-transfected COS cells (immunoblot). Details: species or system monkey. The settings on record: read-out: INHIBITION OF Ras PROCESSING IC50. The method, then:
COS monkey kidney cells were transfected by electroporation with the plasmid pSV-SPORT (Gibco/BRL) containing a cDNA insert encoding either Ras-CVLS or Ras-CVLL, leading to transient overexpression of a Ras substrate for either farnesyl protein transferase or geranylgeranyl protein transferase I, respectively (see above).
Following electroporation, cells were plated into 6-well tissue culture dishes containing 1.5 ml of Dulbecco's-modified Eagle's media (GIBCO, Inc.) supplemented with 10% fetal calf serum and the appropriate farnesyl protein transferase inhibitors. After 24 hours, media was removed and fresh media containing the appropriate drugs was re-added. […]
Membranes were blocked by incubation overnight at 4°C in PBS containing 2.5% dried milk and 0.5% Tween-20 and then incubated with a Ras-specific monoclonal antibody, Y13-259 (Furth, M.E., et al., (1982), Monoclonal antibodies to the p21 products of the transforming gene of Harvey murine sarcome virus and of the cellular ras gene family, J. Virol. 43: 294-304), in PBS containing 1% fetal calf serum for one hour at room temperature. […] The presence of processed and unprocessed Ras-CVLS or Ras-CVLL was detected using a colorimetric peroxidase reagent (4-chloro-1-naphthol) as described by the manufacturer (Bio-Rad).
(In general: A western blot detects proteins with antibodies after separation by electrophoresis.)

These results are taken from patent publication EP0723539B1, “TRICYCLIC SULFONAMIDE COMPOUNDS USEFUL FOR INHIBITION OF G-PROTEIN FUNCTION AND FOR TREATMENT OF PROLIFERATIVE DISEASES” (SCHERING CORPORATION, priority 1993, dated 1995).

Consider `O=S(=O)(Cc1ccccc1)N1CCC(=C2c3ccc(Cl)cc3CCc3cccnc32)CC1` [Compound 2.12], for which the “selective for FPT inhibition” value in assay [1] (FPT versus GGPT) was “at least 32 fold”. Further, in assay [2], the inhibition at 42 µM is 14%. For the same molecule, in assay [3], the “antiproliferative activity against Ras-transformed cells (in words)” value is given as “only weak antiproliferative activity”.

In the case of `C=CS(=O)(=O)N1CCC(=C2c3ccc(Cl)cc3CCc3cccnc32)CC1` [Compound 2.9], in assay [1] (partially purified rat brain FPT, Ras-CVLS farnesylation), the “FPT IC50” value fell in the range of 0.01 to 10 µM. Also, the IC50 (as a rule, the point on the concentration scale where inhibition reaches its midpoint) was 25 µM in assay [4]; 0.01 to 10 µM in the assay on Ras-CVLS processing; 6.3 µM in assay [3] (Homo sapiens, Ras-transformed tumor cells).
